Several values for one entry are separate records, joined by “and”; a condition that tells them apart may be missing. Equal values may be shown once. Toxic doses and inconclusive results are not listed. The calls were made as follows: active = survival T/C of 150% or more; inactive = T/C below 125% in these data.
System: BDF1 mice, P388 leukemia ip, median survival T/C
Test: NCI In Vivo Anticancer Drug Screen. Data for tumor model P388 Leukemia (intraperitoneal) in B6D2F1 (BDF1) mice
Conditions: endpoint: median survival time, higher = longer survival
Summary of the method: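 Steps: implant the tumour, treat one group with compound and another with vehicle, record survival, then divide treated by control.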

[1] = dose: 25.0 mg/kg/injection, schedule: Q01DX009 (ip), vehicle: saline with Tween-80
[2] = dose: 50.0 mg/kg/injection, schedule: Q01DX009 (ip), vehicle: saline with Tween-80
[3] = dose: 100.0 mg/kg/injection, schedule: Q01DX009 (ip), vehicle: saline with Tween-80
[4] = dose: 200.0 mg/kg/injection, schedule: Q01DX009 (ip), vehicle: saline with Tween-80
[5] = dose: 400.0 mg/kg/injection, schedule: Q01DX009 (ip), vehicle: saline with Tween-80
[6] = dose: 100.0 mg/kg/injection, schedule: Q04DX003 (ip), vehicle: Klucel (hydroxypropylcellulose) (HPC)
[7] = dose: 200.0 mg/kg/injection, schedule: Q04DX003 (ip), vehicle: Klucel (hydroxypropylcellulose) (HPC)

Measured: T/C

O=C1c2c(Cl)c(Cl)c(Cl)c(Cl)c2C(=O)N1c1ccc(-c2ccccc2)cc1
inactive: dose: 43.7 mg/kg/injection, schedule: Q01DX009 (ip), vehicle: saline with Tween-80 101 % of control | dose: 87.5 mg/kg/injection, schedule: Q01DX009 (ip), vehicle: saline with Tween-80 101 % of control | dose: 175.0 mg/kg/injection, schedule: Q01DX009 (ip), vehicle: saline with Tween-80 99 % of control

CCOC(=O)C(CNc1ccccc1)C(=O)OCC
inactive: [1] 95 % of control | [2] 95 % of control | [3] 95 % of control and 100 % of control | [4] 100 % of control | [5] 108 % of control and 109 % of control

CN1C=NNc2ccc(Cl)cc2C1=O
inactive: dose: 100.0 mg/kg/injection, schedule: Q04DX003 (ip), vehicle: saline with Tween-80 103 % of control | dose: 200.0 mg/kg/injection, schedule: Q04DX003 (ip), vehicle: saline with Tween-80 114 % of control | dose: 400.0 mg/kg/injection, schedule: Q04DX003 (ip), vehicle: saline with Tween-80 109 % of control

CCCCCCCCSSCCCCCCCC
inactive: dose: 100.0 mg/kg/injection, schedule: Q04DX003 (ip), vehicle: saline 95 % of control | dose: 200.0 mg/kg/injection, schedule: Q04DX003 (ip), vehicle: saline 100 % of control | dose: 400.0 mg/kg/injection, schedule: Q04DX003 (ip), vehicle: saline 95 % of control

CCn1c2ccc(N)cc2c2c3[nH]c(=O)c4cccn4c3ccc21
inactive: dose: 100.0 mg/kg/injection, schedule: Q04DX002 (ip), vehicle: saline with Tween-80 100 % of control | dose: 200.0 mg/kg/injection, schedule: Q04DX002 (ip), vehicle: saline with Tween-80 92 % of control

CCC1=CC(C(O)CC(C)C)C(C)(Cc2ccc(CC)cn2)NC1c1ccccc1 (stereo not given)
inactive: dose: 25.0 mg/kg/injection, schedule: Q04DX002 (ip), vehicle: saline with Tween-80 101 % of control | dose: 50.0 mg/kg/injection, schedule: Q04DX002 (ip), vehicle: saline with Tween-80 106 % of control

F
inactive: dose: 0.25 mg/kg/injection, schedule: Q01DX009 (ip), vehicle: water 113 % of control | dose: 0.5 mg/kg/injection, schedule: Q01DX009 (ip), vehicle: water 95 % of control | dose: 0.62 mg/kg/injection, schedule: Q01DX009 (ip), vehicle: water 86 % of control | dose: 1.25 mg/kg/injection, schedule: Q01DX009 (ip), vehicle: water 100 % of control | dose: 2.5 mg/kg/injection, schedule: Q01DX009 (ip), vehicle: water 95 % of control | dose: 5.0 mg/kg/injection, schedule: Q01DX009 (ip), vehicle: water 100 % of control | dose: 6.25 mg/kg/injection, schedule: Q01DX009 (ip), vehicle: water 100 % of control | dose: 6.25 mg/kg/injection, schedule: Q04DX003 (ip), vehicle: saline 100 % of control | dose: 12.5 mg/kg/injection, schedule: Q01DX009 (ip), vehicle: saline 100 % of control | dose: 12.5 mg/kg/injection, schedule: Q01DX009 (ip), vehicle: water 100 % of control | dose: 12.5 mg/kg/injection, schedule: Q04DX003 (ip), vehicle: saline 100 % of control | dose: 25.0 mg/kg/injection, schedule: Q01DX009 (ip), vehicle: saline 100 % of control | dose: 25.0 mg/kg/injection, schedule: Q01DX009 (ip), vehicle: water 95 % of control | dose: 25.0 mg/kg/injection, schedule: Q04DX003 (ip), vehicle: saline 100 % of control | dose: 33.0 mg/kg/injection, schedule: Q04DX003 (ip), vehicle: saline 104 % of control | dose: 50.0 mg/kg/injection, schedule: Q04DX003 (ip), vehicle: saline 95 % of control

O=C(O)C(CSC(c1ccccc1)c1ccccc1)N1C(=O)c2ccccc2C1=O (stereo not given)
inactive: dose: 50.0 mg/kg/injection, schedule: Q04DX003 (ip), vehicle: Klucel (hydroxypropylcellulose) (HPC) 100 % of control | [6] 104 % of control | [7] 95 % of control

CC1CC/C(=C\c2ccccc2)C(=O)/C1=C/c1ccccc1 (stereo not given)
inactive: dose: 100.0 mg/kg/injection, schedule: Q04DX003 (ip), vehicle: DMSO 112 % of control | dose: 200.0 mg/kg/injection, schedule: Q04DX003 (ip), vehicle: DMSO 87 % of control | dose: 400.0 mg/kg/injection, schedule: Q04DX003 (ip), vehicle: DMSO 87 % of control

N#Cc1ccc(-c2ccc(C#N)cc2Br)c(Br)c1
inactive: dose: 22.0 mg/kg/injection, schedule: Q01DX009 (ip), vehicle: Klucel (hydroxypropylcellulose) (HPC) 92 % of control | dose: 25.0 mg/kg/injection, schedule: Q01DX009 (ip), vehicle: Klucel (hydroxypropylcellulose) (HPC) 110 % of control | dose: 33.0 mg/kg/injection, schedule: Q01DX009 (ip), vehicle: Klucel (hydroxypropylcellulose) (HPC) 95 % of control | dose: 50.0 mg/kg/injection, schedule: Q01DX009 (ip), vehicle: Klucel (hydroxypropylcellulose) (HPC) 100 % of control | dose: 75.0 mg/kg/injection, schedule: Q01DX009 (ip), vehicle: Klucel (hydroxypropylcellulose) (HPC) 89 % of control | dose: 100.0 mg/kg/injection, schedule: Q01DX009 (ip), vehicle: Klucel (hydroxypropylcellulose) (HPC) 88 % of control and 110 % of control | [6] 95 % of control | [7] 100 % of control | dose: 400.0 mg/kg/injection, schedule: Q04DX003 (ip), vehicle: Klucel (hydroxypropylcellulose) (HPC) 100 % of control

COc1ccc(NC(=S)N(C)C)cc1
inactive: [3] 100 % of control | [4] 109 % of control | [5] 109 % of control

O/N=C1\CCCc2ccc(F)cc21
inactive: [1] 100 % of control | [2] 106 % of control and 108 % of control | [3] 106 % of control | [4] 109 % of control and 120 % of control

CCC1=C(c2ccc(OC)cc2)CCC(C(=O)O)C1C (stereo not given)
inactive: dose: 3.0 mg/kg/injection, schedule: Q01DX010 (sc), vehicle: steriod suspending solution 90 % of control | dose: 6.0 mg/kg/injection, schedule: Q01DX010 (sc), vehicle: steriod suspending solution 105 % of control | dose: 12.0 mg/kg/injection, schedule: Q01DX010 (sc), vehicle: steriod suspending solution 100 % of control | dose: 24.0 mg/kg/injection, schedule: Q01DX010 (sc), vehicle: steriod suspending solution 95 % of control | dose: 48.0 mg/kg/injection, schedule: Q01DX010 (sc), vehicle: steriod suspending solution 100 % of control | dose: 96.0 mg/kg/injection, schedule: Q01DX010 (sc), vehicle: steriod suspending solution 110 % of control | dose: 192.0 mg/kg/injection, schedule: Q01DX010 (sc), vehicle: steriod suspending solution 105 % of control

O=C(c1ccccc1)C(Cl)C(=O)c1ccccc1
inactive: dose: 50.0 mg/kg/injection, schedule: Q01DX001 (ip), vehicle: saline with Tween-80 108 % of control | dose: 65.0 mg/kg/injection, schedule: Q01DX001 (ip), vehicle: saline with Tween-80 120 % of control | dose: 150.0 mg/kg/injection, schedule: Q01DX001 (ip), vehicle: saline with Tween-80 101 % of control | dose: 200.0 mg/kg/injection, schedule: Q01DX001 (ip), vehicle: saline with Tween-80 105 % of control

CCN(CC)CCOC(=O)CSC1C2CC3C(C2)C31 (stereo not given)
inactive: dose: 50.0 mg/kg/injection, schedule: Q01DX009 (ip), vehicle: suspension in saline 106 % of control | dose: 100.0 mg/kg/injection, schedule: Q01DX001 (ip), vehicle: suspension in saline 93 % of control | dose: 100.0 mg/kg/injection, schedule: Q01DX009 (ip), vehicle: suspension in saline 107 % of control | dose: 200.0 mg/kg/injection, schedule: Q01DX001 (ip), vehicle: suspension in saline 101 % of control | dose: 200.0 mg/kg/injection, schedule: Q01DX009 (ip), vehicle: suspension in saline 109 % of control | dose: 400.0 mg/kg/injection, schedule: Q01DX001 (ip), vehicle: suspension in saline 102 % of control | dose: 400.0 mg/kg/injection, schedule: Q01DX009 (ip), vehicle: suspension in saline 111 % of control | dose: 600.0 mg/kg/injection, schedule: Q01DX001 (ip), vehicle: suspension in saline 105 % of control

Reference: PubChem BioAssay AID328 (DTP/NCI, 2004)
